# What was measured:
# nitric oxide synthase = settings: cited from earlier work; for inhibition of NOS (in words): background statement
# DDAH = assay: ADMA binding to DDAH (initial studies; equilibrium dialysis and calorimetry)
# Source text: Secondly, the researchers tried to improve the binding of ADMA to DDAH through mutagenesis. Three more mutations were generated in E114 and around this residue. These were E114D, E114D+A115G, L18H (residue in the loop) and P80A. […] Other mutations around the active site were also generated: L161F, G116A, G116V and G116T.
# Thirdly, the researchers tried to calculate a Kd for ADMA of DDAH using nuclear magnetic resonance imaging using the C249S or H162A mutant. […] Fourthly, the researchers tried a fluorophore (fluoresceine 5 maleimide or acrylodan) approach to measure the Kd for ADMA. […] Finally, the researchers generated four mutations with tryptophan: V15W and D16W (in the loop) as well as F58W and E90W (close to the active site). These four residues move in the NMR spectrum when inhibitors bind to the protein.
# iNOS = target: T1, iNOS (Mus musculus, UniProt P29477); assay: [14C]L-NMMA binding to lysates of cytokine-stimulated J774 cells (iNOS lysate), filter assay; settings: excess 1000-fold L-NMMA, FIG. 1, preliminary
# T1 sequence (P29477 1-1144): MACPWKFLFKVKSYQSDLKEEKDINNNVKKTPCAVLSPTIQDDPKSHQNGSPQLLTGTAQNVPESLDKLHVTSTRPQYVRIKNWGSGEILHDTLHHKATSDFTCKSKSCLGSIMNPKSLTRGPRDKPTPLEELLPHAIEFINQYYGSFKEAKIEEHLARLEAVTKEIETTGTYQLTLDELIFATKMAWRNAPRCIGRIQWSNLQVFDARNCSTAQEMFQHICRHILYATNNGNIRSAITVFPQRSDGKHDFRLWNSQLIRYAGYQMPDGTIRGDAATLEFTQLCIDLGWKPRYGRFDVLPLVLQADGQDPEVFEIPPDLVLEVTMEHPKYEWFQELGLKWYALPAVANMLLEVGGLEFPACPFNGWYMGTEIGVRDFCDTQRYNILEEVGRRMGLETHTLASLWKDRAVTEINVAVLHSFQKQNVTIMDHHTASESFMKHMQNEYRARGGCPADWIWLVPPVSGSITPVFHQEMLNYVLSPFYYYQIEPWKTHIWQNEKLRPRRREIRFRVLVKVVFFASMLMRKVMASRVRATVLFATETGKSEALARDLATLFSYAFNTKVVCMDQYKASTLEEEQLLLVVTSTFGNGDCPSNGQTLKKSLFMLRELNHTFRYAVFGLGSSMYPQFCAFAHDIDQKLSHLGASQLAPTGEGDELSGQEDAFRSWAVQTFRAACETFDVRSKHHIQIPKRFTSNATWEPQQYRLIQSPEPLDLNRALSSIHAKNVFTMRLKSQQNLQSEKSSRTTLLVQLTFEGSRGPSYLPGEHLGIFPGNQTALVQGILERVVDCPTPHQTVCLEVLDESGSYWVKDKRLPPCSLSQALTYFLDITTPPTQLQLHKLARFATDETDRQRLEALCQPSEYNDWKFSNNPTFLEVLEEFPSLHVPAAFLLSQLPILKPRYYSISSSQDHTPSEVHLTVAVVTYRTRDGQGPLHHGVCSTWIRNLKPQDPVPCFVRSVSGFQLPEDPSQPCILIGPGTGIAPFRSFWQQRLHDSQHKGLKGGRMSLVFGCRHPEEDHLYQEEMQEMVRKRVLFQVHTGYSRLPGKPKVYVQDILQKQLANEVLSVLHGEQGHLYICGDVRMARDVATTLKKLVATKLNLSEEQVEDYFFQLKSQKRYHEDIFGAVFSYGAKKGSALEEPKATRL
# Protocol: A=J774 stimulated, B=J774 stimulated+L-NMMA, C=control and D=control+L-NMMA.
# Macrophages (J774 cells) were stimulated with a cytokine cocktail (LPS/IFN/TNF) for 24 h, to induce iNOS expression, and cell lysates were collected. […] Low molecular weight molecules were removed from lysates using 30000 MW cut-off filters. Lysates were incubated on 3000 MW filters with [^14C]L-NMMA for 15 min ([…] L-NMMA), washed 3× with cold TRIS buffer and filters counted.
# [1] = target: T2, bsNOS fragment (bacillus subtilis nitric oxide synthase oxygenase domain) (Bacillus subtilis, UniProt O34453); assay: [14C]L-NMMA binding to bsNOS fragment on 30000 MW cut off filters; settings: 1000-fold excess unlabelled L-NMMA, FIG. 2, preliminary
# T2 construct: made in house
# Protocol: (§1) A=Control and B=excess L-NMMA.
# A bacillus subtilis nitric oxide synthase oxygenase domain (“fragment”) was PCR amplified from genomic DNA with Nde1 and BamH1 sites added at the 5′ and 3′ ends respectively and cloned into pET15b vector. The bsNOS fragment corresponded to SEQ ID NO: 2 and was purified as previously described (Pant et al., Biochemistry; 2002; 41:11071-11079).
# [^14C]L-NMMA (3.75 nmol) was incubated with the bsNOS fragment ([…]) on 30000 MW cut off filters in the presence and absence (Control) of 1000-fold excess unlabelled L-NMMA.
# [2] = target: T2, bsNOS fragment (bacillus subtilis nitric oxide synthase oxygenase domain); assay: bsNOS binding to [14C]L-NMMA, PVDF filters with rapid washes; settings: L-NMMA 1 mM, FIG. 3
# Protocol: as §1
# A modified method previously described for binding [3H]nitroarginine to mammalian NOS was used to ensure rapid washes of the bsNOS fragment complexes and ligand to reduce time for dissociation (Liu Q and Gross S S, Methods Enzymol. 1996; 268:311-24). [^14C]L-NMMA ([…] −20000 counts total) was incubated with the bsNOS fragment ([…]) in assay buffer containing: 50 mM Tris pH 7.6; 50 uM BH4, 0.5 mM DTT. Reactants were incubated for 15 min at room temperature and NOS-bound [^14C]L-NMMA was separated from free [^14C]L-NMMA using PVDF filters and 3×1 ml rapid washes in cold Tris pH 7.6. Background was determined by the addition of 1 mM L-NMMA to bsNOS in assay buffer. Filters were added to 5 ml scintillation cocktail and counted in scintillation counter (Beckmann).
# T2 sequence (O34453 other isoform, or with tags, fused parts or gaps with the stated changes): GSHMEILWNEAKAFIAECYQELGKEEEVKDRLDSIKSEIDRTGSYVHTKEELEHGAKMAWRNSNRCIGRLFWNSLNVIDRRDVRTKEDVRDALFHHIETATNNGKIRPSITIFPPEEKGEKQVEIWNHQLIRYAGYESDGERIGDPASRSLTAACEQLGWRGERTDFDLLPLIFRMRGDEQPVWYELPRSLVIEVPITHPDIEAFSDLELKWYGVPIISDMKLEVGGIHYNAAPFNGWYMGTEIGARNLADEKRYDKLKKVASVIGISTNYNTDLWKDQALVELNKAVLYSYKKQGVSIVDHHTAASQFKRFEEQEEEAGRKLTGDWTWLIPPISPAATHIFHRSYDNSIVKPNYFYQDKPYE
compound,measurement,setting,value
N=C(N)NCCC[C@H](N)C(=O)O [arginine],Km,"nitric oxide synthase; nitric oxide synthase, the 3 enzymes, read-out: Km for arginine",7 to 19 µM
"CN(C)C(=N)NCCCC(N)C(=O)O (stereo not drawn) [ADMA, asymmetric dimethylarginine]",saturation of DDAH in calorimetry experiments,"DDAH; inactive mutations C249S, H162A, E114Q, very high concentrations of ADMA (10 mM)",saturation was never reached
same,concentrations necessary to get binding to DDAH,DDAH; initial studies,millimolar concentrations
same,inhibition of NOS (in words),nitric oxide synthase,equipotent
"CNC(=N)NCCC[C@H](N)C(=O)O [L-NMMA, N^G-monomethyl-L-arginine]",competition of [14C]L-NMMA binding by unlabelled ligand,iNOS,competed out
same,competition of [14C]L-NMMA binding by unlabelled ligand,[1],competed out
same,[14C]L-NMMA binding in the presence of unlabelled ligand,[2],reduced to background
same,inhibition of NOS (in words),nitric oxide synthase,equipotent
"CN=C(NC)NCCC[C@H](N)C(=O)O [SDMA, symmetric dimethylarginine]",inhibition of NOS (in words),nitric oxide synthase,does not inhibit NOS

# Reference: US20090053741A1 (priority 2005, published 2009)
